Publication PMC3923439, “Anti-inflammatory properties of a novel peptide interleukin 1 receptor antagonist” (Journal of Neuroinflammation, 2014)
Positions of bridges follow the written chain, without caps; N, C: chain ends. Chains are numbered I, II in the order given. No end group written: not given here.

Assays:
[1] = tested on: neonatal rat pancreatic islets; test: IL-1β-induced nitric oxide production (nitrite, Griess reagent); format: cell-based; details: nitrites in supernatants of the apoptosis experiments, four independent experiments
Method: For cell death detection, rat islets were incubated with 150 pg/ml IL-1β (BD Pharmingen, San Diego, CA, USA) alone or in combination with various concentrations of Ana and Ilantide for 24 hours at 37°C in humidified atmospheric air. Rat islet cell death was assessed by cell death detection ELISA (Roche, Lund, Sweden) as previously described. As a surrogate measure of nitric oxide production, Griess reagent (1:1 aqueous mixture of 0.1% naphthylethylenediamine hydrochloride and 1% sulfanilamide + 5% H3PO4) was mixed in a 1:1 ratio with 100 μl of supernatant samples to determine the nitrite content in supernatants from the cell death assays described above.
Figure 8 Effect of Ilantide on interleukin 1β-induced nitric oxide production. Anakinra (A) but none of the peptides, Ilantide-m (B) or Ilantide-t (C), inhibited interleukin 1β (IL-1β)-induced nitric oxide production. The results of four independent experiments are shown. *P < 0.05 and **P < 0.01 compared with cultures treated with IL-1 alone (one-way analysis of variance followed by Dunnett’s post hoc test).

[2] = tested on: collagen-induced arthritis; test: Collagen-induced arthritis in rats; format: in vivo; details: rat, 10 mg/kg s.c. daily dpi 8 to 15, dpi 10 to 16, P < 0.05
Method: CIA was induced by bovine collagen type II (CII; Sigma-Aldrich) solubilized in 0.05 M acetic acid (2 mg/ml), then emulsified 1:1 with complete Freund’s adjuvant (CFA) (Sigma-Aldrich) that contained 1.0 mg/ml heat-inactivated Mycobacterium tuberculosis. While the animals were under inhalation anesthesia (3% isoflurane; Baxter, Allerød, Denmark), 250 μl of the emulsion that contained 250 μg of CII and 125 μg of M. tuberculosis were injected intradermally at the tail base (day postimmunization 0 (dpi 0)). […] An observer who was blinded to the treatment groups evaluated the severity of arthritis by employing the following grading system: 0 (no redness or swelling of the foot), 1 (slight redness in the foot or redness and swelling in single interphalangeal joints), 2 (moderate swelling and redness in the ankle and metatarsal part of the foot), 3 (marked swelling and redness of the entire foot, with restricted use of the foot during locomotion) and 4 (marked swelling and redness of the entire foot, with no use of the foot during locomotion). […] The differences in the area under the clinical score curve during the period of observation between the control and peptide-treated groups were calculated, with baseline defined as the start of treatment (that is, 0).

[3] = tested on: experimental autoimmune encephalomyelitis; test: Experimental autoimmune encephalomyelitis; format: in vivo, rat; details: female Lewis rats
Method: Experimental autoimmune enchephalomyelitis was induced in female Lewis rats by guinea pig myelin basic protein (MBP) emulsified with CFA (Sigma-Aldrich) that contained 1.0 mg/ml heat-inactivated M. tuberculosis. While the animals were under inhalation anesthesia (3% isoflurane; Baxter), 200 μl of an emulsion that contained 200 μg of MBP were subcutaneously injected at the tail base (dpi 0). Between dpi 0 and 21, weight and clinical signs of EAE were recorded daily for all of the animals. Clinical signs were scored as follows: 0 (no abnormality), 0.5 (weak tail), 1 (limp tail), 2 (mild palsy of one or both hind legs), 3 (severe palsy of one or both hind legs), 4 (complete paralysis of one or both hind legs), 5 (paralysis of one or both hindlimbs and the beginning of paralysis of the forelimbs) and 6 (moribund). Animals with a clinical score ≥4 were immediately killed. From dpi 10 forward, the animals were treated once daily for 5 consecutive days with Ilantide-t (10 mg/kg, 1 ml/kg, s.c.) or PBS (1.0 ml/kg s.c.). Only animals that reached a clinical score ≥1 before dpi 14 were included in the study.

[4] = tested on: Aβ25–35-induced social memory deficit; format: in vivo; details: rat, Aβ25–35 15 μg i.c.v., Ilantide-t 10 mg/kg s.c., third trial
Method: Aggregates of Aβ25-35 (Bachem AG, Weil am Rhein, Germany) were prepared by incubating the peptides at a concentration of 3 μg/μl in sterile water for 4 days at 37°C. Subsequently, 5 μl of aggregated Aβ25-35 were injected intracerebroventricularly (1.2 μl/min) with a 10-μl Hamilton syringe using the following coordinates: 0.8 mm posterior to the bregma, 1.5 mm lateral to the sagittal suture and 3.8 mm beneath the surface of the brain. The procedure was performed while the animals were under anesthesia (i.p. fentanyl-fluanisone/midazolam at 0.3 ml/100-g animal; that is, 23.6 μg of fentanyl, 0.75 mg of fluanisone and 375 μg midazolam per 100-g animal). Social memory in animals reflects the ability of individuals to recognize conspecifics as familiar or unfamiliar. […] During each trial, the investigative behavior of the adult toward the juvenile (that is, licking, sniffing and chewing the fur of the juvenile) was monitored with a video camera and scored by an observer who was blinded to the treatment of the animals. […] The time spent investigating a novel juvenile (T3) was measured to confirm that the effect seen with the familiar juvenile was specific to cognition. In this case, RRnew was calculated as T3/(T1 + T3).

ectodomain of IL-1RI = target: T1, ectodomain of IL-1RI (Homo sapiens, UniProt P14778); test: Surface plasmon resonance binding of immobilized ligand to recombinant IL-1RI ectodomain; details: SPR, Biacore 2000, ligand immobilized on CM4 chip, IL-1RI ectodomain injected, 25°C, pH 7.4
T1 construct: the recombinant ectodomain of IL-1RI (R&D Systems) was injected; purchased R&D Systems
T1 sequence (P14778 18-336 limits assumed): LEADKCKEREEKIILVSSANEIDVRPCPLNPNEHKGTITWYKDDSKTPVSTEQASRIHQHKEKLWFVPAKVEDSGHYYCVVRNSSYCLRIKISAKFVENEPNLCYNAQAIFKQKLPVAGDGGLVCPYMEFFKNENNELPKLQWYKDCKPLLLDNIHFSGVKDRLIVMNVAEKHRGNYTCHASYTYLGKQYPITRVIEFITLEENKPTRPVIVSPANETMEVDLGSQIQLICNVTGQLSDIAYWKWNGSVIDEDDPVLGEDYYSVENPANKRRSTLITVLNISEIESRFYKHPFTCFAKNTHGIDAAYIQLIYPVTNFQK
Method: The binding analysis was performed using a Biacore 2000 instrument (GE Healthcare Life Sciences) that contained 150 mM NaCl as running buffer at 25°C with 10 mM sodium phosphate (pH 7.4). The flow rate was 5 μl/min during immobilization. Ilantide peptide, IL-1β or IL-1Ra was immobilized on a CM4 sensor chip according to the manufacturer’s instructions, after which the recombinant ectodomain of IL-1RI (R&D Systems) was injected. The neural cell adhesion molecule (NCAM) immunoglobulin modules 1 and 2 (Ig1 and Ig2) were used as a negative control protein [9]. The data were analyzed using nonlinear curve-fitting with the manufacturer’s software.

[5] = 10 mg/kg s.c. once daily dpi 10 to 14
[6] = 10 mg/kg s.c. once daily for 5 days

Substance: I: SGRKSSKMQAKK-NH2 / II: SGRKSSKMQAK / III: SGRKSSKMQA / IV: SGRKSSKMQA (amide I:11-IV:C, I:12-II:C, II:11-III:C; C-terminus assumed) [Ilantide-t]
- Inhibition of IL-1β-induced nitric oxide production [1]: none
- Severity of CIA (clinical score, area under the curve) versus vehicle [2]: significantly attenuated
- Clinical signs of EAE [3, 5]: attenuated
- Effect on weight change or survival in EAE [3, 5]: no significant effects
- Mean clinical signs of EAE versus vehicle, first and second days after onset [3, 6]: significantly lower
- Mean clinical signs of EAE versus vehicle, later time points [3, 6]: no difference
- RRnew (recognition ratio with new juvenile) [4]: did not differ from 0.5

Substance: IL-1Ra: recombinant interleukin 1 receptor antagonist purchased from R&D Systems
- k d (ectodomain of IL-1RI): 3.62 ± 0.65 × 10^-3 s^-1
